Source: PMC12384620, “Hit-to-Lead Studies of Pyrazinylpiperazines against Visceral Leishmaniasis: Pharmacokinetic Profile and In Vivo Efficacy of Potent Compounds against Leishmania infantum” (ACS Pharmacology & Translational Science, 2025)

Key:
L. braziliensis SOD = assay: SOD interaction by differential scanning fluorimetry; format: binding, Leishmania braziliensis
Description: (§1) The assays were performed using an Applied Biosystems 7500 Fast RT-PCR system (Applied Biosystems, Foster City, CA, USA), in triplicate, with 96-well PCR plates (BioRad, Hercules, CA, USA) sealed with transparent capping strips (BioRad, Hercules, CA, USA). The plates were centrifugated for 2 min at 2000 rpm at 25 °C. The temperature was then ramped up from 25 to 85 °C, increasing 1 °C per minute, while fluorescence signals were monitored using SYPRO Orange dye, with an excitation wavelength of 492 nm and an emission wavelength of 610 nm.
(§2) The DSF conditions used in this study have been previously described. , Briefly, each well contained 10 μM L. braziliensis Hsp90 or 5 μM L. braziliensis SOD, 1 μL of 5X SYPRO Orange, buffer A (50 mM PBS, 100 mM NaCl, pH 7.0 for L. braziliensis SOD or 50 mM Tris-HCl, 100 mM KCl, pH 8.0 for L. braziliensis Hsp90), and either 1 μL DMSO (5% v/v, negative control) or 1 – 6 (diluted in DMSO). […] Raw fluorescence data was collected using the Applied Biosystems 7500 Fast Software v2.0 and then exported to NAMI for Tm calculation via the first-derivative method. Differences in Tm values (ΔTm) were considered statistically significant when p < 0.05, as determined by the Kruskal–Wallis test followed by Dunn’s post-test for multiple comparisons, performed using GraphPad Prism 10.0 (GraphPad Software, San Diego, CA, USA, www.graphpad.com).

[1] = PAMPA gastrointestinal tract permeability; format: in vitro ADME; details: for Papp at 8 h, 0.5 mM: PAMPA-GI, read-out: GI Pe
Description: A 10 mM solution of each compound in DMSO was prepared and subsequently homogenized in a 5 mL flask with 4.75 mL PBS (pH 6.6) (10 mM). […] 180 μL of a PBS (pH 7.4)/DMSO (95:5) solution were then added to the wells of a 96-well receiver plate, and 5 μL of a L-α-phosphatidylcholine solution (20 mg/mL in dodecane) to the wells of a 96-well donor plate. After 5 min, 180 μL of the solutions containing each compound were added to the wells of the donor plate, in triplicate, and the donor plate was carefully placed over the receiver plate in a “sandwich-like” system, which was left stirring (50 rpm) for 8 h at rt in a sealed vessel containing 10 mL PBS (pH 7.4). Afterward, the donor plate was removed, and the content of the receiver plate was transferred to a UV reading plate, which was read using a microplate reader (SpectraMax 5 – Molecular Devices). A reference sample for the internal correction of the microplate reader was prepared using 180 μL of the PBS (pH 7.4)/DMSO (95:5) solution (adapted from refs and ). The optical density values obtained from the content of the receiver plate were compared with the ones obtained from readings performed with the initial solutions containing each compound, before their addition to the donor plate. […] The optical density values from the receptor plate were compared to those from experimental controls to determine the F a value for each compound, using Microsoft Excel.

L. infantum = assay: Antileishmanial activity against L. infantum amastigotes in THP-1 macrophages; format: cell-based; details: Leishmania infantum; growth of L. infantum in THP-1 macrophages, 72 h
Description: The in vitro anti-L. infantum activity (IC50) of each compound was evaluated on THP-1 cells (human leukemia monocytic cell line) infected with L. infantum promastigotes, and the in vitro cytotoxicity (CC50) was determined over the THP-1 cell line. The selectivity index (SI) was calculated as the ratio of the CC50 value determined in the cytotoxicity assay, divided by the IC50 value determined in the antileishmanial activity assay.
Cells derived from the human monocytic strain THP-1 were cultured in complete Rowell Park Memorial Institute (RPMI)-1640 medium (supplemented with 10% fetal bovine serum, 100 U/mL penicillin, and 100 μg/mL streptomycin). Monocytes were differentiated into macrophages by the addition of 20 ng/mL phorbol myristate acetate (PMA). After 72 h, the macrophages (5 × 10^4), in black 96-well microtiter plates (Corning Incorporated, Corning, NY), were infected with Leishmania (Leishmania) infantum (MHOM/BR/1974/PP75) promastigotes transfected with gene tdTomato, on the second day of the stationary phase (20 parasites per macrophage) for 4 h. […] The IC50 values were determined by nonlinear regression using a variable slope model (log(concentration) vs growth inhibition) with the GraphPadPrism v8.2.0 (CA, USA) software. Controls with uninfected cells, untreated infected cells, and infected cells treated with amphotericin B at 0.25 μM (positive control) or DMSO 1% were used. Quadruplicates were run on the same plate, and the experiments were repeated at least once.

L. braziliensis = assay: Inhibition of growth of L. braziliensis in THP-1 macrophages; format: cell-based; details: Leishmania braziliensis
Excerpt: 1 In Vitro Antileishmanial Potency, Selectivity Index, and ADME Properties of Compounds 1 – 6 | column: L. braziliensis IC50 (μM)^b (SI)^b

L. infantum GSK-3A = assay: GSK-3A enzyme inhibition (LANCE TR-FRET); format: biochemical; details: concentrations up to 30 μM, 50 nM enzyme
Description: The following controls were included: protein in 1% DMSO (100% activity), 10 μM AZD-5438 (0% activity), and buffer without enzyme (blank).
To detect the progress of the enzymatic reaction, a commercially available TR-FRET-based assay (LANCE TR-FRET, PerkinElmer) was used. In the enzymatic step, purified protein kinase and the peptide substrate were incubated with compounds 1 – 6 for 30 min at 25 °C before the addition of ATP to start the reaction, which was run at 30 °C (2 h for GSK-3A or 1 h 15 min for GSK-3B). […]. […]
The fluorescence signal was measured using a CLARIOstar microplate reader (BMG LABTECH) set with an excitation wavelength of 320 nm and an emission wavelength of 665 nm. MARS software (BMG LABTECH) was used to analyze the data obtained after reading each plate. The background fluorescence signal (blank) was subtracted from the fluorescence signal obtained for each reaction, in order to reflect the specific signal of enzymatic activity. The data was then analyzed with the GraphPad Prism v10 software, using the equation “log(inhibitor) vs response - variable slope (four parameters) - Y = Bottom + (Top-Bottom)/(1 + 10̂((LogIC50-X)* HillSlope))” to obtain dose–response curves and determine IC50 values. […]

L. braziliensis Hsp83 = assay: Hsp83 interaction by differential scanning fluorimetry; format: binding, Leishmania braziliensis
Description: as §1, §2

Row | SMILES | effect on Tm of L. braziliensis SOD (DSF) (L. braziliensis SOD; 100 μM) | Fa, fraction absorbed (GI) [1] [%] | Papp at 8 h, 0.5 mM [1] [×10⁻⁶ cm/s] | IC50 (L. infantum) [µM] | IC50 (L. braziliensis) [µM] | inhibition of L. infantum GSK-3A (L. infantum GSK-3A) | effect on Tm of L. braziliensis Hsp83 (DSF) (L. braziliensis Hsp83; 100 μM) | interaction with L. braziliensis SOD (DSF titration curves) (L. braziliensis SOD; 100 μM to 12.5 μM) | interaction with L. braziliensis Hsp83 (DSF titration curves) (L. braziliensis Hsp83; 100 μM to 12.5 μM)
1 | O=C(c1ccc(O)cc1)N1CCN(c2cnccn2)CC1 [Compound 2, (4-Hydroxyphenyl)(4-(pyrazin-2-yl)piperazin-1-yl)methanone] | failed to exert statistically significant effects | 62.71 | 2.59 | 3.1 ± 1.3 | 7.6 ± 3.2 | no inhibitory effect | failed to exert statistically significant effects | – | –
2 | O=C(c1ccc(O)c(Cl)c1)N1CCN(c2cnccn2)CC1 [Compound 1, (3-Chloro-4-hydroxyphenyl)(4-(pyrazin-2-yl)piperazin-1-yl)methanone] | – | 99.26 | 12.9 | 11.9 ± 2.2 | 11.7 ± 0.7 | did not exert any inhibition | – | neither of these compounds interacts | neither of these compounds interacts
